Source: US10744134B2, “Pharmaceutical composition for cancer immunotherapy and/or immunological activation containing diamino heterocyclic carboxamide compound as active ingredient” (Astellas Pharma Inc., priority 2015, dated 2020)

Key:
[1] = tested on: CD4+ and CD8+ T cells; test: Immune activation: flow cytometry of CD4+ and CD8+ T cells in spleen and tumor of MC38 cancer-bearing mice (Example 2); format: in vivo, C57BL/6J mouse; conditions: 100 mg/kg qd oral for seven days
Experimental: (§1) Evaluation of Immune Activation of Compound a with Respect to Colon Carcinoma Cell Line MC38 Cancer-Bearing Model
(§2) MC38 subcutaneous cancer-bearing mice were prepared by subcutaneously transplanting MC38 cells on the back of C57BL/6J mouse (female, Charles river, Japan). After confirming the engraftment of the tumor, hemifumarate of the compound A, which is the test compound, was orally administered to seven mice at a dose of 100 mg/kg (in terms of free form) once a day for seven days. As a control, 0.5% of methylcellulose was also orally administered to seven mice at the same dose of 100 mg/kg once a day for seven days, which was the same administration as the group administered at a 100 mg/kg. After measuring the tumor volume change on the 4th and 7th days, spleens and tumors were collected from a total of six mice of three examples (control-1, control-2, and control-3) extracted from the control group and three examples extracted from the compound A administered groups (COMPOUND A 100 mg/kg qd-1, COMPOUND A 100 mg/kg qd-2, and COMPOUND A 100 mg/kg qd-3). Then, staining was performed with anti CD3 antibody (eBioscience), anti CD4 antibody (Biolegend), anti CD8 antibody (eBioscienec), anti CD45 antibody (Biolegend), and the number of positive cells of each antigen was measured using a flow cytometer (BD FACS Verse).

[2] = tested on: colon carcinoma cell line MC38; test: Anti-tumor evaluation (in vivo) in colon carcinoma cell line MC38 cancer-bearing model (Example 1); parameters: species or system C57BL/6J mice; conditions: hemifumarate of compound A, oral, vs control group, FIG. 1
Experimental: Evaluation of Anti-Tumor (In Vivo) of Compound a with Respect to Colon Carcinoma Cell Line MC38 Cancer-Bearing Model
The colon cancer cell line MC38 cells (National Cancer Institute) were cultured in Dulbecco's modified Eagle's minimum essential medium (DMEM) supplemented with 10% Fetal Bovine Serum (FBS). MC38 subcutaneous cancer-bearing mice were subsequently prepared by subcutaneously transplanting MC38 cells on the back of C57BL/6J mice (female, Charles river, Japan). After confirming the engraftment of the tumor, the change in the tumor volume of each of the group (COMPOUND A 30 mg/kg bid) in which hemifumarate of the compound A, which is a test compound, dissolved in 0.5% of methyl cellulose is orally administered at a dose of 30 mg/kg (in terms of free form) twice a day for 17 days, the group (COMPOUND A 60 mg/kg qd) in which hemifumarate of the compound A is orally administered at a dose of 60 mg/kg (in terms of free form) once a day for 17 days, and the control group in which the compound A is not administered, was measured at a frequency of twice a week.

[3] = tested on: colon carcinoma cell line MC38; test: Tumor volume change in MC38 subcutaneous cancer-bearing mice (Example 2); format: in vivo, C57BL/6J mouse; conditions: hemifumarate, oral, 100 mg/kg (free form) once a day for seven days; individuals qd-2 and qd-3; measured on 4th and 7th days; FIG. 2
Experimental: as §1, §2

[4] = tested on: malignant melanoma; conditions: first-line, malignant melanoma patients; cited from earlier work

Compound	proportion of the number of CD8+ cells in CD45+ and CD3+ cells in a tumor ([1]; individuals qd-2 and qd-3 in which tumor growth was suppressed, FIG. 5)	proportion of the number of CD4+ cells in CD45+ and CD3+ cells in spleen ([1]; three mice vs three controls, FIG. 3)	proportion of the number of CD8+ cells in CD45+ and CD3+ cells in spleen ([1]; three mice vs three controls, FIG. 4)	tumor volume ([2]; 30 mg/kg (free form) twice a day for 17 days)	tumor volume ([2]; 60 mg/kg (free form) once a day for 17 days)	tumor volume [3]	overall survival extended, share of the nivolumab group [4] [%]
CCc1nc(C(N)=O)c(Nc2ccc(N3CCC(N4CCN(C)CC4)CC3)c(OC)c2)nc1NC1CCOCC1 [compound A, 6-ethyl-3-({3-methoxy-4-[4-(4-methylpiperazin-1-yl)piperidin-1-yl]phenyl}amino)-5-(tetrahydro-2H-pyran-4-ylamino)pyrazine-2-carboxamide]	the increase of the number of CD8+ cells was observed	the increase in the number of CD4+ cells and CD8+ cells in spleen was observed	the increase in the number of CD4+ cells and CD8+ cells in spleen was observed	strong effect of suppressing the increase in the tumor volume	strong effect of suppressing the increase in the tumor volume	the increase in the tumor volume was hardly observed	
nivolumab: anti-PD-1 antibody marketed as a therapeutic agent for malignant melanoma and non-small cell lung cancer							72.9
